The values that follow come from patent US10450549B2, “Aryloxyphenoxypropionate tolerance in turfrgass species and use of AAD1 as a selectable marker” (Dow AgroSciences, LLC, priority 2004, dated 2019).

Several values for one entry are separate records, joined by “and”; a condition that tells them apart may be missing. Equal values may be shown once.

In experiment [1] the test system is AAD1-transformed T0 ‘Shamrock’ Kentucky bluegrass events. Kind of experiment: Haloxyfop-R-methyl postemergence on AAD1 (pDAB3878) T0 Shamrock Kentucky bluegrass, visual % injury. The class given is in vivo. As to conditions: for injury of event KGB51: 560 g ae/ha. How it is done:
‘Shamrock’ Kentucky bluegrass T0 pDAB3878 events were maintained vegetatively through division of the crowns and replanting the clonal pieces into fresh growth medium. Clonally propagated plants were maintained by periodic “mowing” of vegetative tissues.
A growth medium was prepared by mixing Promix® and sand in a 2 to 1 ratio. The medium was contained in plastic pots with a surface area of 84.6 square centimeters (cm^2). When required to maintain plant health, a fungicide, insecticide, and/or other chemical or physical treatment was applied to stock plants. The plants were maintained in a greenhouse with an approximate 14 hour photoperiod which was maintained at 24-27° C. during the day and 22-25° C. during the night. Nutrients (Peters Excel® 15-5-15 5-Ca 2-Mg and iron chelate) were applied in the irrigation solution as needed and water was added on a regular basis. Supplemental lighting was provided with overhead metal halide 1000-Watt lamps when PAR dropped below 500.
The selected T0 plants were sprayed with haloxyfop-R-methyl (Gallant Super®, DOW AGROSCIENCES, INC.) at rates ranging from 140 to 560 g ae/ha. […] This rate would also control susceptible monocot weed species. Measured amounts were placed individually in 25 mL glass vials and dissolved in a 12 mL volume of 1.0% (v/v) Agri-Dex® Crop Oil Concentrate (COC).
Spray solutions were applied to the plant material with an overhead Mandel™ track sprayer equipped with a 8002E nozzles calibrated to deliver 187 L/ha over an application area of 0.503 square meters (m^2) at a spray height of 18 inches (46 cm) above average plant canopy height. Control plants were sprayed in the same manner with the COC blank.
The treated plants and control plants were placed in a greenhouse and watered by sub-irrigation to prevent wash-off of the test compounds. At various times after application, the condition of the test plants as compared with that of the untreated plants was determined visually and scored on a scale of 0 to 100 percent, where 0 corresponds to no injury or growth inhibition, and 100 corresponds to complete kill. Regenerated, non-transformed (NT) ‘Shamrock’ Kentucky bluegrass plants and/or seed-derived clonally propagated plants served as haloxyfop sensitive controls.

Experiment [2] has as its system AAD1 (v2)-transformed T1 Arabidopsis. Kind of experiment: T1 Arabidopsis response to postemergence herbicide, % visual injury 2 WAT: native AAD1 (v2) transformants. Format: in vivo, Arabidopsis thaliana. As to conditions: for % Injury Ave / individuals with 20-40% injury / individuals with <20% injury / individuals with >40% injury: Native AAD1 (v2) gene, 2 WAT. Here is the method:
Freshly harvested T1 seed (transformed with native [AAD1 (v2)] or plant optimized [AAD1 (v3)] gene) was allowed to dry for 7 days at room temperature. T1 seed was sown in 26.5×51-cm germination trays (T.O. Plastics Inc., Clearwater, Minn.), each receiving a 200 mg aliquots of stratified T1 seed (˜10,000 seed) that had previously been suspended in 40 ml of 0.1% agarose solution and stored at 4° C. for 2 days to complete dormancy requirements and ensure synchronous seed germination.
Sunshine Mix LP5 (Sun Gro Horticulture Inc., Bellevue, Wash.) was covered with fine vermiculite and subirrigated with Hoagland's solution until wet, then allowed to gravity drain. Each 40 ml aliquot of stratified seed was sown evenly onto the vermiculite with a pipette and covered with humidity domes (KORD Products, Bramalea, Ontario, Canada) for 4-5 days. Domes were removed 1 day prior to initial transformant selection using glufosinate postemergence spray (selecting for the co-transformed PAT gene).
Five to six days after planting (DAP) and again 10 DAP, T1 plants (cotyledon and 2-4-1f stage, respectively) were sprayed with a 0.2% solution of Liberty herbicide (200 g ai/L glufosinate, Bayer Crop Sciences, Kansas City, Mo.) at a spray volume of 10 ml/tray (703 L/ha) using a DeVilbiss compressed air spray tip to deliver an effective rate of 280 g ai/ha glufosinate per application. Survivors (plants actively growing) were identified 5-7 days after the final spraying and transplanted individually into 3-inch pots prepared with potting media (Metro Mix 360). Transplanted plants were covered with humidity domes for 3-4 days and placed in a 22° C. growth chamber as before. Domes were subsequently removed and plants moved to the greenhouse (22+5° C., 50+30% RH, 14 h light:10 dark, minimum 500 μE/m^2s^1 natural+supplemental light) at least 1 day prior to testing for the ability of AAD1 (v3) (plant optimized gene) or AAD1 (v2) (native microbial gene) to provide phenoxy auxin herbicide resistance.
Random individual T1 plants selected for glufosinate resistance above were confirmed for expression of the PAT protein using a PAT ELISA kit (Part no. 7000045, Strategic Diagnostics, Inc., Newark, Del.) to non-destructively confirm fidelity of selection process (manufacturer's protocol). Plants were then randomly assigned to various rates of phenoxy herbicides (dichlorprop or 2,4-D). […] Elevated rates were applied in subsequent trials (50, 200, 800, or 3200 g ae/ha).
All auxin herbicide applications were made using the DeVilbiss sprayer as described above to apply 703 L/ha spray volume (0.4 ml solution/3-inch pot) or applied by track sprayer in a 187 L/ha spray volume. […] Dichlorprop used was technical grade (Sigma, St. Louis, Mo.) dissolved in DMSO and diluted in water (<1% DMSO final concentration). As herbicide rates increased beyond 800 g ae/ha, the pH of the spray solution became exceedingly acidic, burning the leaves of young, tender Arabidopsis plants and complicating evaluation of the primary effects of the herbicides. It became standard practice to apply these high rates of phenoxy herbicides in 200 mM Tris buffer (pH 9.0) to a final pH of ˜7-8.
Table 16. […] Response is presented in terms of % visual injury 2 WAT. […] Since each T1 is an independent transformation event, one can expect significant variation of individual T1 responses within a given rate. An arithmetic mean and standard deviation is presented for each treatment. The range in individual response is also indicated in the last column for each rate and transformation. PAT/Cry1F-transformed Arabidopsis served as an auxin-sensitive transformed control. Wildtype Arabidopsis is untransformed.

The target in experiment [3] is AAD2 (v1) (Bradyrhizobium diazoefficiens, UniProt Q89UC4). Briefly: Colorimetric phenol assay of AAD2 (v1) E. coli extract / partially purified enzyme. Format: biochemical, Bradyrhizobium japonicum.

`CC(Oc1ccc(Oc2ncc(C(F)(F)F)cc2Cl)cc1)C(=O)O` (stereo not shown) [haloxyfop]: the “mean injury, pDAB3878 Shamrock Kentucky bluegrass events” value in experiment [1] (140 and 560 g ae/ha, 11, 14 and 20 DAA) is recorded as “less than 15%”. The figures for the “injury of event KGB51” value in experiment [1] (11 DAA), in experiment [1] (14 DAA) and in experiment [1] (20 DAA) were “about 20%”, roughly 30% and roughly 30%, respectively.

As for `O=C(O)COc1ccc(Cl)cc1Cl` [2,4-D, 2,4-dichlorophenoxyacetic acid], the “T1 plants surviving uninjured (<20% visual injury)” value in experiment [2] (AAD1 (v2), 200 g ae/ha) is 56%. Besides, in experiment [2] (50 g ae/ha), the “% Injury Ave” value was determined as 14.8%, the “individuals with 20-40% injury” value was determined as 16, the “individuals with <20% injury” value turned out to be 55 and the “individuals with >40% injury” value is given as 9. In experiment [2] (200 g ae/ha), the “% Injury Ave” value is 34% and 34.1%; the “individuals with 20-40% injury” value is listed as 11; the “individuals with <20% injury” value came to 45; the “individuals with >40% injury” value was 24. Moreover, in experiment [2] (800 g ae/ha), the “% Injury Ave” value came to 52.5%, the “individuals with 20-40% injury” value was determined as 32, the “individuals with <20% injury” value is listed as 11 and the “individuals with >40% injury” value turned out to be 37. For the same molecule, the “Vmax (A510 units)” value in experiment [3] (AAD2 (pDAB3202), MOPS pH 6.75) stood at 0.86 A510 units. Moreover, the “apparent Vmax, AAD2 (v1)” value in experiment [3] (partially purified enzyme) is on record as 0.86 A510 units.
